These results are taken from article PMC11206246, “Cyclosporin A-Based PROTACs Can Deplete Abundant Cellular Cyclophilin A without Suppressing T Cell Activation” (Molecules, 2024).

Assay [1] has as its target T1, CypA (Homo sapiens, UniProt P62937). Briefly: Degradation of endogenous CypA in HeLa cells (western blot). As to conditions: 1 μM epoxomicin, 3 μM MG-132, 1 μM CsA, 10 μM VHL ligand. Format: cell-based. Further details: The degradation of endogenous CypA in HeLa cells was investigated; endogenous in cells; host or cells: HeLa. As for the experimental part: (§1) HeLa cells and primary human dermal fibroblasts isolated from neonatal foreskin (HDFn) were adherent cells and were cultured in commercially available, ready-to-use DMEM ([…], Gibco, Waltham, MA, USA) supplemented with 10% (v/v) FBS (Fetal Bovine Serum, Sigma-Aldrich) and antibiotics (Streptomycin/Penicillin, 1:1000 dilution) in polystyrene culture flasks. Growth conditions for all cell lines were maintained in a humidified chamber at 37 °C and 5% CO2. For subculturing or prior counting, the cells were treated with trypsin-EDTA (Life Technologies GmbH, Carlsbad, CA, USA) to detach them from the surface.
(§2) A total of 5 × 10^5 HeLa cells or HDFn was plated in 6-well plates the day before treatment. […] An amount of 200 μL PROTAC dilutions (0.1 μM and 1.0 μM) in DMSO (final concentration 0.1% (v/v)) were added to the culture medium and incubated at 37.0 °C and 5.0% CO2 for the desired time. As a blank, the cells were incubated with 200 μL DMSO under the same conditions. After the appropriate incubation time, the medium was aspirated, and the cells were washed twice with 1× PBS.
(§3) Cells were lysed in ice-cold 1× Laemmli buffer (100 mM DTT) after two washes with 1× PBS. After denaturation (95 °C for 5 min) and shearing of the DNA by sonication, the samples were loaded on Tricine-SDS-PAGE, electrophoresed, and blotted onto a PVDF membrane. After staining with S-Ponceau staining solution and blocking, the membranes were incubated overnight at 4 °C in primary rabbit anti-CypA antibody (Cell Signaling Technology #2175S, Danvers, MA, USA) and for 1 h at room temperature with secondary antibody (IRDye® 800 CW Goat anti-Rabbit IgG Secondary Antibody, LI-COR). All membranes were then reprobed with rabbit anti-beta actin (Cell Signaling Technology #4967) to ensure equal protein loading. The intensities of the bands on western blot films were quantified using the LI-COR Odyssey Imaging System and the software Image Studio Lite (version 3.1). The CypA values were normalized to β-actin, and DMSO was arbitrarily assigned a value of 100% for comparison purposes.

The target in assay [2] is T1, CypA. Briefly: Degradation of CypA in HDFn fibroblasts (western blot). The format is cell-based. As to conditions: 1 μM epoxomicin, 3 μM MG-132, 1 μM CsA, 10 μM VHL ligand. More on the design: endogenous in cells; host or cells: primary PBMCs from healthy donors. As for the experimental part:
as §1, §2, §3
(In general: Immunoblotting shows a protein as a band on a membrane.)

Assay [3] concerns the target T1, CypA. Conditions: cited from earlier work.

The structures appear in SMILES notation. Where a SMILES comes first, the peptide text is derived from it. The star is where a group is joined. Cbz = O=C(OCc1ccccc1)*

T1 sequence (P62937 whole entry): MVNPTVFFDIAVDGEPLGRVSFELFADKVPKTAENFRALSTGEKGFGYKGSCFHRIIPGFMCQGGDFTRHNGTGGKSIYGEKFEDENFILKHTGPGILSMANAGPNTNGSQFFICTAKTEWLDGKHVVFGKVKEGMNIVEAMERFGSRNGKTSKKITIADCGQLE

Take `Cc1ncsc1-c1ccc(CNC(=O)[C@@H]2C[C@@H](O)CN2C(=O)[C@@H](N)C(C)(C)C)cc1` [VHL ligand 1]: the “effect of 1 h pre-treatment with the substance on CypA degradation by P3 or P5” value (“effect of 1 h pre-treatment” below) at CypA [1] and at CypA [2] was “recovery of CypA band” each time. As to `C/C=C/C[C@@H](C)[C@@H](O)[C@H]1C(=O)N[C@@H](CC)C(=O)N(C)[C@H](C)C(=O)N(CC)[C@@H](C(C)C)C(=O)N[C@@H](C(C)C)C(=O)N(C)[C@@H](CC(C)C)C(=O)N[C@@H](C)C(=O)N[C@H](C)C(=O)N(C)[C@@H](CC(C)C)C(=O)N(C)[C@@H](CC(C)C)C(=O)N(C)[C@@H](C(C)C)C(=O)N1C` [Alisporivir], the CypA inhibitor potency result on CypA [3] is recorded as “low nM”. For the compound `CC(C)C[C@@H](C=O)NC(=O)[C@H](CC(C)C)NC(=O)[C@H](CC(C)C)NC(=O)OCc1ccccc1` [MG-132] (Cbz-Leu-Leu-Leu-aldehyde), the “effect of 1 h pre-treatment” value at CypA [1] and at CypA [2] was “suppressed” each time. Turning to `CC[C@H](C)[C@H](NC(=O)[C@H]([C@@H](C)CC)N(C)C(C)=O)C(=O)N[C@H](C(=O)N[C@@H](CC(C)C)C(=O)[C@@]1(C)CO1)[C@@H](C)O` [Ep, epoxomicin], the “effect of 1 h pre-treatment” value on CypA [1] and at CypA [2] was “suppressed” in each case.
